Patent US6211151A, “Peptides with organo-protective activity, a process for preparation thereof and their use in therapy” (priority 1992, dated 2001)
No end group written: not given here.

Tests used:
[1] = tested on: NMRI-Hannover female mice; experiment: Influence on vitamin A induced malformation; type: in vivo; conditions: peptide alone, 10 μg or 10 ng/kg b.w., i.p., tenth day of pregnancy
Method: 12. Influence on induced malformation
NMRI-Hannover female mice, two months old, 25 g b.w., but not previously exposed to copulation were used in all experiments. The female mice in the estrus phase were mated overnight with well experienced healthy male mice. The mice were sacrified after 20 days of pregnancy.
Vitamin A was applied in a dose of 15700 U/kg b.w., i.m., at tenth day of the pregnancy (0.05 ml/kg b.w.). Peptide Seq.Id.No: 4 was given simultaneously in a dosage of 10 μg or 10 ng/kg b.w.,i.p.
Control: saline 5.0 ml/kg b.w., i.p.
Animals non treated with vitamin A receiving at the same time i.p. saline or peptide 4 in the same dosage served as healthy control.

female mice = experiment: Acute toxicity; type: in vivo; conditions: 8, 25 and 50 μg/kg b.w., i.v.; observed 15 days
Method: Acute toxicity of synthetic peptides was determined in female mice (weight ca. 20 g). Groups of 6 animals were used for each experiment and control.
Peptides Seq.Id.No: 2,3,4 and 6 were applied in a dosage of 8, 25 and 50 μg/kg b.w., i.v. Control group was treated with saline (0.9%, 5.0 ml/kg b.w.).

Wistar male rats = experiment: Turpentine induced buccal edemas; type: in vivo, rat; conditions: 10 μg/kg b.w., i.p. and i.g., 1 hour before turpentine; measured 24 hours after induction
Method: 3. Turpentine induced buccal edemas
Wistar male rats (180-240 g), N=10 in each group. Turpentine was given intramucosally 0.02 ml/rat. Control: 0.9% saline intramucosally (0.02 ml/rat, 2×). Peptides Seq. Id. No: 2 and 4 were applied in a dose of 10 μg and 10 ng/kg, i.p. and i.g., 1 hour before turpentine. Buccal edemas were measured 24 hours after edema induction. Statistical analysis: Mann-Whitney test. The investigated peptides were effective in a dosage of 10 μg/kg b.w.

[2] = tested on: Albino Wistar (male) rats; experiment: Gastric ulcer induced by restraint stress; type: in vivo, rat; conditions: 10 μg or 10 ng/kg b.w., i.p. or i.g., 1 hour before 48 hours immobilization; even at 10 ng/kg
Method: 1.) Gastric ulcer induced by restraint stress
Albino Wistar (male) rats (180-200 g), were used in the experiments. All the animals were immobilized in a supine position for 48 hours at room temperature. Immediately thereafter they were sacrified and the lesions measured. The peptides Seq. Id. No: 4, 6 and 2 were applied in dosage of 10 μg or 10 ng/kg b.w., i.p. or i.g. 1 hour before noxious procedure.

LEPPPLKPADALGV [Seq. Id. No: 4]
malformation in animals not treated with vitamin A [1]: No malformation | signs of toxicity or death (female mice): no signs of toxicity or death

LEPPPLKPADDALGV [Seq.Id.No: 3]
signs of toxicity or death (female mice): no signs of toxicity or death

Seq. Id. No: 2: synthetic peptide of 8 to 15 amino acid residues with BPC-type activity; sequence not printed in this text (GEPPPGKPADDAGLV)
signs of toxicity or death (female mice): no signs of toxicity or death | effect on buccal edemas (Wistar male rats): effective | protection against restraint stress gastric lesions [2]: strongly protective

EPPPLKPA [Seq. Id. No: 6]
signs of toxicity or death (female mice): no signs of toxicity or death
